Where a SMILES comes first, the peptide text is derived from it. [ ]: non-standard residue; d: D form. The star is where a group is joined. Dolaproine = CO[C@@H]([C@@H]1CCCN1)[C@@H](C)C(=O)O; Dil = CC[C@H](C)[C@H](NC)[C@@H](CC(=O)O)OC; X1 = C[C@@H](N*)[C@@H](O)c1ccccc1; NMeV = CN[C@H](C(=O)O)C(C)C
Experiments:
phospho-JNK [1] = experiment: Phospho-JNK western blot; format: cell-based; conditions: FIG. 9C
Protocol: T-24 Nectin-4 (clone1A9) cells were treated with an anti-nectin-4 ADC (AGS-22C3E) for 48 hours and stained with β-tubulin for microtubules and DAPI, a nuclear DNA stain. FIGS. 9B and 9C depict activation of phospho-INK in response to the treatment with an anti-nectin-4 ADC (AGS-22C3E). In FIG. 9B, western blots show an increase in phospho-JNK over a period of 48 hours upon treatment with an anti-nectin-4 ADC (AGS-22C3E) at 1 ug/mL). In FIG. 9C, Phosphorylation of JNK is observed in treatment with an anti-nectin-4 ADC (AGS-22C3E) and MMAE but absent in untreated or non-binding ADC control.

T-24-Nectin-4 cells = experiment: ICD cell surface markers (calreticulin, HSP70); format: cell-based, human; conditions: anti-nectin-4 ADC 1 ug/mL, MMAE 100 nM, compared with untreated or control hIgG-MMAE (1 mg/mL)
From the text: FIG. 4A is a cartoon representation of the release of ATP and HMGB1 by cells treated with an anti-nectin-4 ADC and the effects of the released ATP and HMGB1 on macrophages. FIG. 4B is a cartoon representation of the release of ATP and HMGB1 by cells treated with an anti-nectin-4 ADC, the activation of the immune cells by the ATP and HMGB1, and the potential immunogenic cell death or immunogenic cell killing by the activated immune cells. FIG. 4C depicts ATP release in control T-24 cells and T-24 cells expressing nectin-4 after various treatments as indicated. FIG. 4D depicts ATP release in control UM-UC-3 cells and UM-UC-3 cells expressing nectin-4 after various treatments as indicated. FIG. 4E depicts HMGB1 release in control T-24 cells and T-24 cells expressing nectin-4 after various treatments as indicated. FIGS. 4F and 4G depict cell surface calreticulin (4F) and HSP70 (4G), respectively, in cells upon various treatments as indicated. Increase in ICD cell surface markers such as calreticulin or HSP70 can be detected on T-24-Nectin-4 cells upon treatment with an anti-nectin-4 ADC (1 ug/mL) or MMAE (100 nM) compared with untreated or treatment with the control hIgG-MMAE (1 mg/mL). In FIGS. 4C to 4G, EV and AGS-22C3E indicate the same anti-nectin-4 ADC.

phospho-JNK [2] = experiment: ER stress, phospho-JNK activation; format: cell-based
[3] = test system: acute myeloid leukemia (AML) at relapse; conditions: administered alone; cited from earlier work
human Nectin-4 = target: T1, human Nectin-4 (human, UniProt Q96NY8 32-510); experiment: cell-based or functional assay
T1 sequence: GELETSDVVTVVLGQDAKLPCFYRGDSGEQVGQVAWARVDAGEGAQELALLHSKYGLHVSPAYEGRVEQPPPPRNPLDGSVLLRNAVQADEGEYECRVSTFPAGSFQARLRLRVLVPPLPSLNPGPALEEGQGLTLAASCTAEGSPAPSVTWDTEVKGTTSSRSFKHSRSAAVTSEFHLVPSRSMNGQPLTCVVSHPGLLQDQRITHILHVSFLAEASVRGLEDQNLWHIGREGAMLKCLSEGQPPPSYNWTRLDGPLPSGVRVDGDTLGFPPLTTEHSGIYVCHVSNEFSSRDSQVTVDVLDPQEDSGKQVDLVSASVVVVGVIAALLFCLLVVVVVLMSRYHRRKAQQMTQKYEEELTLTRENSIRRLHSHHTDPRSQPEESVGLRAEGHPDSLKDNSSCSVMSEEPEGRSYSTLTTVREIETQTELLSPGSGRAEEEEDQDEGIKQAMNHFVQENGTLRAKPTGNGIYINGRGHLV

Molecule: CC[C@H](C)[C@@H]([C@@H](CC(=O)N1CCC[C@H]1[C@H](OC)[C@@H](C)C(=O)N[C@H](C)[C@@H](O)c1ccccc1)OC)N(C)C(=O)[C@@H](NC(=O)[C@@H](NC)C(C)C)C(C)C [MMAE, monomethyl auristatin E] (H-[NMeV]V[Dil][Dolaproine]-X1)
- phosphorylation of JNK (phospho-JNK [1]): observed
- cell surface calreticulin (ICD marker) (T-24-Nectin-4 cells; FIG. 4F): Increase
- cell surface HSP70 (ICD marker) (T-24-Nectin-4 cells; FIG. 4G): Increase
- phospho-JNK activation (phospho-JNK [2]): activates phospho-JNK

Molecule: CT-011: anti-PD-1 antibody, a humanized antibody
- response in AML at relapse [3]: failed to show response

B1: enfortumab vedotin (antibody, human IgG1, kappa, V domains shown)
VH: EVQLVESGGGLVQPGGSLRLSCAASGFTFSSYNMNWVRQAPGKGLEWVSYISSSSSTIYYADSVKGRFTISRDNAKNSLSLQMNSLRDEDTAVYYCARAYYYGMDVWGQGTTVTVSS
VL: DIQMTQSPSSVSASVGDRVTITCRASQGISGWLAWYQQKPGKAPKFLIYAASTLQSGVPSRFSGSGSGTDFTLTISSLQPEDFATYYCQQANSFPPTFGGGTKVEIKR
modifications: MMAE conjugated via a protease-cleavable maleimidocaproyl valine-citrulline (vc) linker on cysteine residues that comprise the interchain disulfide bonds; drug-to-antibody ratio approximately 3.8:1
- Enfortumab vedotin Cytotoxicity IC50 (T-24 Nectin-4 Clone 1A9 cells; cell viability by CELL TITER-GLO 120 hours post-treatment) (human Nectin-4): 85 ng/mL
- Enfortumab vedotin Cytotoxicity IC50 (UM-UC-3 Nectin-4 Clone 1D11 cells; cell viability by CELL TITER-GLO 120 hours post-treatment) (human Nectin-4): 6 ng/mL

— patent publication US20230270871A1, “MARKERS FOR USE IN METHODS FOR TREATING CANCERS WITH ANTIBODY DRUG CONJUGATES (ADC)” (AGENSYS, INC., priority 2020, published 2023)
